In one experiment the test system is Anacridium aegyptium. Briefly: Laboratory tests on orthoptera. The experiment is classed as in vivo.
The next experiment has as its system Halyomorpha halys. Kind of experiment: Laboratory tests on heteroptera. The format is in vivo.
A further experiment concerns Meloidogyne incognita. Briefly: In vitro test on M. incognita eggs (egg hatching, petri dishes). Conditions: tested concentration 5%.

Results on one compound are retold here after patent US20210137118A1, “NEW USES OF 9-(3-DEOXY-BETA-D-RIBOFURANOSYL)ADENINE” (Agroquimicos De Levante, S.A., priority 2018, published 2021).

Take `Nc1ncnc2c1ncn2[C@@H]1O[C@H](CO)C[C@H]1O` [9-(3-Deoxy-β-D-ribofuranosyl)adenine]: in the experiment on Anacridium aegyptium, the “effect on adult forms of orthoptera (Anacridium aegyptium)” value is recorded as “no significant effect”. Besides, the “effect on adult forms of heteroptera (Halyomorpha halys)” value with Halyomorpha halys is listed as “no significant effect”. For the same compound, in the experiment on Meloidogyne incognita, the “action on free larvae included in the ovisacs” value is “good action” and the “effect on egg embryogenesis” value is reported as “inhibition of egg embryogenesis”.
